Source: article PMC9636434, “Discovery of small molecule agonists of the Relaxin Family Peptide Receptor 2” (Communications Biology, 2022)
Values joined by “and” are separate entries in the source; they are usually repeats but may differ in a detail not shown here. Equal entries are not always repeated. Where two headings read alike, the source gives them in different places.

Experiments:
[1] = biological target: T1, human ADORA1 (Homo sapiens, UniProt P30542); test: PRESTO-Tango β-arrestin recruitment, ADORA1 transfected HTLA cells; format: cell-based; conditions: for RLU: replicates (1)-(4)
T1 sequence (P30542 1-326): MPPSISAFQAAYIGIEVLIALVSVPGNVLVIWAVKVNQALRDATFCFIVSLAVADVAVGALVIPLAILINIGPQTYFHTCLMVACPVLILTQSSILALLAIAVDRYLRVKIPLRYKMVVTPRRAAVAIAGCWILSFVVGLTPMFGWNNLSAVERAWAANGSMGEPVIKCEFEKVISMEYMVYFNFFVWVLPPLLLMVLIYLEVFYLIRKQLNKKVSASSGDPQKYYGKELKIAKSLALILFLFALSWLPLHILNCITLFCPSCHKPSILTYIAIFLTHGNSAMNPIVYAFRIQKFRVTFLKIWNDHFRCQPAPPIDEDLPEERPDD

[2] = biological target: T2, human RXFP1 (Homo sapiens, UniProt Q9HBX9); test: HTRF cAMP counter-screen in HEK293T cells expressing human RXFP1; format: cell-based; conditions: for % Eff (cAMP): human RXFP1, experiments (1)-(3)
T2 construct: FLAG (N); expressed in transfected cells
T2 sequence (Q9HBX9 1-757): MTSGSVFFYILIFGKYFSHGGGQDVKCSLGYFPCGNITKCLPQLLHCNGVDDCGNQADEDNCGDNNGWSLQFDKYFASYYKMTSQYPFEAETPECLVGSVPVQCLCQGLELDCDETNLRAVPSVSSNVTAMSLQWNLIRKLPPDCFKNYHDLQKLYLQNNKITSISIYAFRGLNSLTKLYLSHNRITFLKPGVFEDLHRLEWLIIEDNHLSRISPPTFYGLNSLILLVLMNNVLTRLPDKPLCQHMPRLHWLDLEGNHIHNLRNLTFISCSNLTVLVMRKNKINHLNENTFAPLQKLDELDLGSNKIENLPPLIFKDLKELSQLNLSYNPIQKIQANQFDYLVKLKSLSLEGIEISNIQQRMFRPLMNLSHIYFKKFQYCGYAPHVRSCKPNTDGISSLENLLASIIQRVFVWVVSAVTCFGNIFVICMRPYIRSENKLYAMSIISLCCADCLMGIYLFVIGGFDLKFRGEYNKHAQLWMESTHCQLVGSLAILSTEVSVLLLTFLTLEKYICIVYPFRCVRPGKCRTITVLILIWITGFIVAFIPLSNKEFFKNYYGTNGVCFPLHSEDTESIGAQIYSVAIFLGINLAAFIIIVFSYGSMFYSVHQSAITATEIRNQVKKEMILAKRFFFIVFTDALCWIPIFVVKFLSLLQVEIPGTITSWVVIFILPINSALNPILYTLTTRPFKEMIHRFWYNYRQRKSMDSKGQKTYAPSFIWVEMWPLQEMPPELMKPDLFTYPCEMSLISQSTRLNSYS
Method: The HTRF Gs dynamic cAMP assay kit (CisBio, Bedford, MA) was used to measure intracellular cAMP accumulation in HEK293T cells (ATCC, Manassas, VA)[56]. […] The cell stock was verified mycoplasma free and authenticated by ATCC. Transient transfection was accomplished by treating cells in a 6-well plate with a mixture of 2 μg plasmid and 6 μL Lipofectamine 2000 (Invitrogen, Waltham, MA) per manufacturer’s protocol and incubating overnight. For cAMP measurement in 96-well format, HEK293T cells stably transfected with human RXFP2 (HEK-RXFP2), human RXFP1 (HEK-RXFP1), mouse Rxfp1 (HEK-Rxfp1) or transiently transfected with human RXFP1-RXFP2 chimeric receptors were seeded between 7500 and 30,000 cells per well, depending on cell line responsiveness, in serum-free DMEM medium and incubated overnight at 37 °C, 5% CO2. After 18 h, cells were treated with a titration of compound, 2 μM forskolin, or DMSO vehicle. Control wells were also treated with a titration of INSL3 (Phoenix Pharmaceuticals, Burlingame, CA) or human recombinant relaxin 2 (Peprotech, Cranbury, NJ). For the RXFP2 antagonist experiment, cells were co-treated with 0.28 μM compound or 30 nM INSL3 and a titration of the INSL3 B dimer antagonist[38],[39]. For the INSL3 allosteric modulation experiment, cells were co-treated with 0.025, 0.0025, or 0.00025 μM of compound and a titration of INSL3. Cells were incubated for 1 h at 37 °C, 5% CO2, and then kit cAMP-d2 and anti-cAMP antibody were added per manufacturer protocol. Plates were incubated for 1 h at room temperature and the signal was read on a CLARIOstar plate reader (BMG Labtech, Ortenberg, Germany) at 665 and 620 nm emission wavelengths. […]
receptors. HTRF cAMP counter-screen of RXFP2 agonists in HEK293T cells expressing a human RXFP1 and b mouse RXFP1. Relaxin 2 was used as positive control for RXFP1 receptor activation. Results are expressed as mean ± SEM of 3

[3] = follow-up test using multiple compound concentrations
[4] = 10 mg/kg PO 3 times per week, 8 weeks

## O=C1Nc2ccc(-c3cc(C(F)(F)F)cc(C(F)(F)F)c3)cc2C(=O)N2CCN(C(=O)COc3ccc(OC(F)(F)F)cc3I)C[C@@H]12 [compound 6641]
[1]; 10 µM compound, basal level of detection 3-fold RLU
  β-arrestin recruitment, ADORA1 (mean ± SEM): 3.92 ± 0.15 fold RLU
[1]; Log [M] -4.52
  RLU: 12779.2 RLU and 12694.9 RLU
[1]; Log [M] -5
  RLU: 11730.3 RLU and 10165.7 RLU and 11306.6 RLU
[1]; Log [M] -5.52
  RLU: 8500.46 RLU and 7004.94 RLU and 7182.3 RLU and 7062.97 RLU
[1]; Log [M] -6
  RLU: 6700.59 RLU and 4967.56 RLU and 5863.08 RLU and 4072.06 RLU
[1]; Log [M] -6.52
  RLU: 3400.99 RLU and 2989.38 RLU and 3675.77 RLU and 3380.19 RLU
[1]; Log [M] -7
  RLU: 3045.21 RLU and 3372.53 RLU and 2679.57 RLU and 3462.3 RLU
[1]; Log [M] -7.52
  RLU: 2808.75 RLU and 2538.36 RLU and 2762.77 RLU and 2945.59 RLU
[1]; Log [M] -8
  RLU: 3154.68 RLU and 2602.94 RLU and 3418.51 RLU and 3449.16 RLU
[1]; Log [M] -8.52
  RLU: 2742.95 RLU and 3614.63 RLU and 3319.34 RLU and 3617.47 RLU
[1]; Log [M] -9
  RLU: 3242.68 RLU and 2896.28 RLU and 3413.04 RLU and 3315.08 RLU
[1]; Log [M] -9.52
  RLU: 3821.91 RLU and 2910.47 RLU and 2806.84 RLU and 4087.39 RLU
[1]; Log [M] -10
  RLU: 2500.19 RLU and 3249.78 RLU and 3509.58 RLU and 3875.86 RLU
[1]; Log [M] -10.52
  RLU: 3874.43 RLU and 2887.76 RLU and 2717.4 RLU and 3465.57 RLU
[1]; Log [M] -11
  RLU: 3657.22 RLU and 3613.21 RLU and 3589.08 RLU and 3231.32 RLU
[1]; Log [M] -11.52
  RLU: 2119.72 RLU and 4131.4 RLU and 3244.1 RLU and 3141.88 RLU
[1]; Log [M] -12
  RLU: 3765.12 RLU and 3810.55 RLU and 4489.16 RLU and 3752.34 RLU
[1]; [3]
  ADORA1 β-arrestin efficacy compared with NECA: much lower efficacy
  concentrations at which ADORA1 responded (β-arrestin): above 1 µM
[4]
  body or organ (liver, kidney) weight vs vehicle: No changes
  histological analysis of livers and kidneys: did not show any changes in cell morphology
Left Kidney, after 8-week oral treatment, individual mice
  Left Kidney weight: 0.4912 and 0.4654 and 0.4705 and 0.5626 and 0.5314 and 0.5304 and 0.5976 and 0.5317 and 0.5347 and 0.5015 and 0.5707 and 0.5055 and 0.4688 and 0.4947 and 0.545
Liver, after 8-week oral treatment, individual mice
  Liver weight: 4.014 and 3.487 and 3.8235 and 3.754 and 3.582 and 3.355 and 4.71 and 3.617 and 3.875 and 3.519 and 3.904 and 3.698 and 3.86 and 3.544 and 3.928
Right Kidney, after 8-week oral treatment, individual mice
  Right Kidney weight: 0.5699 and 0.5019 and 0.5734 (2×) and 0.5889 and 0.5665 and 0.5265 and 0.5931 and 0.5579 and 0.5793 and 0.6089 and 0.5717 and 0.4908 and 0.5191 and 0.5352
Day 18, individual mice
  Body weight: 19.85 g and 17.73 g and 17.98 g and 16.95 g and 18.38 g and 18.83 g and 21.28 g and 19.38 g and 20.27 g and 20.03 g and 16.32 g and 20.68 g and 19.45 g and 18.87 g and 17.54 g
Day 21, individual mice
  Body weight: 19.93 g and 18.04 g and 17.94 g and 17.08 g and 17.98 g and 19.29 g and 21.67 g and 19.33 g and 20.02 g and 19.71 g and 16.43 g and 21.48 g and 19.84 g and 19.3 g and 18.07 g
Day 25, individual mice
  Body weight: 20.1 g and 18.01 g and 17.55 g and 16.7 g and 18.33 g and 19.06 g and 21.44 g and 20.16 g and 20.44 g and 20.28 g and 16.93 g and 21.61 g and 19.73 g and 19.34 g and 18.63 g
Day 28, individual mice
  Body weight: 19.97 g and 17.83 g and 17.52 g and 17.01 g and 18.4 g and 18.9 g and 22.31 g and 19.96 g and 21.2 g and 20.35 g and 17.55 g and 21.63 g and 20.55 g and 19.62 g and 18.84 g
Day 32, individual mice
  Body weight: 20.73 g and 18.54 g and 18.23 g and 16.58 g and 19.25 g and 19.78 g and 22.35 g and 20.74 g (2×) and 21.45 g and 17.18 g and 20.72 g and 20.18 g and 19.42 g and 18.61 g
Day 35, individual mice
  Body weight: 20.28 g and 18.14 g and 18.03 g and 17.15 g and 19.17 g and 19.71 g and 22.83 g and 20.57 g and 20.92 g and 19.8 g and 17.11 g and 22.36 g and 20.66 g and 20.25 g and 18.8 g
Day 39, individual mice
  Body weight: 20.17 g and 18.1 g and 17.93 g and 17.63 g and 19.64 g and 20.24 g and 22.43 g and 20.72 g and 21.92 g and 20.95 g
[2]; HTRF cAMP
  activation of human RXFP1 receptor: do not activate
[2]; Log [M] -4.60
  % Eff (cAMP): -1.3757% and -1.734% and -1.01%
[2]; Log [M] -5.60
  % Eff (cAMP): -1.852% and -1.326% and -2.683%
[2]; Log [M] -6.60
  % Eff (cAMP): -1.88% and -0.1839% and -0.6843%
[2]; Log [M] -7.60
  % Eff (cAMP): -1.108% and 0.09011% and -0.3682%
